How the values were obtained:
[1] = post oral dosing; cited from earlier work
[2] = human urine; major defined by ≧10% total drug exposure (Baselt 2014); cited from earlier work
[3] = human, in vivo
Method: (§1) Samples were subsequently vortexed and centrifuged prior to the injection of 5 μL on the QQQ. Each patient sample was analyzed twice to ensure accuracy.
(§2) Samples were subsequently vortexed and centrifuged prior to the injection of 5 μL on the QQQ.
as §2, §1, §2, §2, §2, §2, §2

[4] = Urine test of patients prescribed Seroquel after enzymatic hydrolysis with recombinant β-glucuronidase, QQQ; format: in vivo, human; conditions: patient prescribed Seroquel, various doses
Method: 100 μL of each patient specimen was diluted with 400 μL of a “master mix” that included 1.6 μg/mL of quetiapine-D8 (internal standard), 0.06 M phosphate buffer, and at least 1450 U of a recombinant β-glucuronidase enzyme.

[5] = cited from earlier work
[6] = humans; cited from earlier work

SMILES: c1ccc2c(c1)N=C(N1CCNCC1)c1ccccc1S2 [N-Desalkyl Quetiapine, N-Desalkyl Quetiapine (Norquetiapine)]
- share of the total radioactivity in plasma [1]: 10%
- abundance in urine [2]: only small quantities

SMILES: O=C(O)COCCN1CCN(C2=Nc3ccccc3Sc3ccccc32)CC1 [Quetiapine Carboxylic Acid]
- Urine concentration, Pre-Hydrolysis Results, Subject HR [3]: >5000 ng/mL
- Urine concentration, Pre-Hydrolysis Results, Subject T [3]: 6 ng/mL
- Urine concentration, Pre-Hydrolysis Results, Subject W [3]: 5 ng/mL
- Urine concentration, Pre-Hydrolysis Results, Subject eight [3]: >5000 ng/mL
- Urine concentration, Pre-Hydrolysis Results, Subject eighteen [3]: >5000 ng/mL
- Urine concentration, Pre-Hydrolysis Results, Subject eleven [3]: >5000 ng/mL
- Urine concentration, Pre-Hydrolysis Results, Subject fifteen [3]: >5000 ng/mL
- Urine concentration, Pre-Hydrolysis Results, Subject five [3]: >5000 ng/mL
- Urine concentration, Pre-Hydrolysis Results, Subject four [3]: >5000 ng/mL
- Urine concentration, Pre-Hydrolysis Results, Subject fourteen [3]: >5000 ng/mL
- Urine concentration, Pre-Hydrolysis Results, Subject nine [3]: >5000 ng/mL
- Urine concentration, Pre-Hydrolysis Results, Subject nineteen [3]: 5 ng/mL
- Urine concentration, Pre-Hydrolysis Results, Subject one [3]: >5000 ng/mL
- Urine concentration, Pre-Hydrolysis Results, Subject seven [3]: >5000 ng/mL
- Urine concentration, Pre-Hydrolysis Results, Subject seventeen [3]: >5000 ng/mL
- Urine concentration, Pre-Hydrolysis Results, Subject sixteen [3]: >5000 ng/mL
- Urine concentration, Pre-Hydrolysis Results, Subject thirteen [3]: >5000 ng/mL
- Urine concentration, Pre-Hydrolysis Results, Subject three [3]: >5000 ng/mL
- Urine concentration, Pre-Hydrolysis Results, Subject twelve [3]: >5000 ng/mL
- Urine concentration, Pre-Hydrolysis Results, Subject twenty [3]: >5000 ng/mL
- Urine concentration, Pre-Hydrolysis Results, Subject twenty-five [3]: >5000 ng/mL
- Urine concentration, Pre-Hydrolysis Results, Subject twenty-four [3]: >5000 ng/mL
- Urine concentration, Pre-Hydrolysis Results, Subject twenty-three [3]: 10 ng/mL
- Urine concentration, Pre-Hydrolysis Results, Subject twenty-two [3]: >5000 ng/mL
- abundance in urine [2]: major

SMILES: [O-][S+]1c2ccccc2N=C(N2CCN(CCOCCO)CC2)c2ccccc21 (centres unmarked) [Quetiapine Sulfoxide]
- Urine concentration, Pre-Hydrolysis Results, Average [3]: 2318 ng/mL
- Urine concentration, Pre-Hydrolysis Results, Maximum Value [3]: >5000 ng/mL
- Urine concentration, Pre-Hydrolysis Results, Median Value [3]: 2143 ng/mL
- Urine concentration, Pre-Hydrolysis Results, Subject HR [3]: >5000 ng/mL
- Urine concentration, Pre-Hydrolysis Results, Subject eight [3]: >5000 ng/mL
- Urine concentration, Pre-Hydrolysis Results, Subject eighteen [3]: >5000 ng/mL
- Urine concentration, Pre-Hydrolysis Results, Subject eleven [3]: 2143 ng/mL
- Urine concentration, Pre-Hydrolysis Results, Subject fifteen [3]: 740 ng/mL
- Urine concentration, Pre-Hydrolysis Results, Subject five [3]: 4484 ng/mL
- Urine concentration, Pre-Hydrolysis Results, Subject four [3]: >5000 ng/mL
- Urine concentration, Pre-Hydrolysis Results, Subject fourteen [3]: >5000 ng/mL
- Urine concentration, Pre-Hydrolysis Results, Subject nine [3]: >5000 ng/mL
- Urine concentration, Pre-Hydrolysis Results, Subject one [3]: >5000 ng/mL
- Urine concentration, Pre-Hydrolysis Results, Subject seven [3]: >5000 ng/mL
- Urine concentration, Pre-Hydrolysis Results, Subject seventeen [3]: >5000 ng/mL
- Urine concentration, Pre-Hydrolysis Results, Subject six [3]: 1252 ng/mL
- Urine concentration, Pre-Hydrolysis Results, Subject sixteen [3]: 2971 ng/mL
- Urine concentration, Pre-Hydrolysis Results, Subject thirteen [3]: >5000 ng/mL
- Urine concentration, Pre-Hydrolysis Results, Subject three [3]: >5000 ng/mL
- Urine concentration, Pre-Hydrolysis Results, Subject twelve [3]: >5000 ng/mL
- Urine concentration, Pre-Hydrolysis Results, Subject twenty [3]: >5000 ng/mL
- Urine concentration, Pre-Hydrolysis Results, Subject twenty-five [3]: >5000 ng/mL
- Urine concentration, Pre-Hydrolysis Results, Subject twenty-four [3]: >5000 ng/mL
- Urine concentration, Pre-Hydrolysis Results, Subject twenty-one [3]: >5000 ng/mL
- Urine concentration, Pre-Hydrolysis Results, Subject twenty-two [3]: >5000 ng/mL
- Urine concentration, Pre-Hydrolysis Results, Subject two [3]: >5000 ng/mL
- Urine concentration, Post-Hydrolysis Results, Subject W [4]: ND (Indicates that the listed parent or metabolite compound was either not detected or detected below the established cut-off of 5 ng/mL indicating a negative result for that particular subject.)
- abundance in urine [2]: major

SMILES: OCCOCCN1CCN(C2=Nc3ccccc3Sc3ccccc32)CC1 [Quetiapine, 2-(2-(4-dibenzo[b,f][1,4]thiazepine-11-yl-1-piperazinyl)ethoxy) ethanol, reference compound]
- Urine concentration, Pre-Hydrolysis Results, Average [3]: 838 ng/mL
- Urine concentration, Pre-Hydrolysis Results, Maximum Value [3]: 4999 ng/mL
- Urine concentration, Pre-Hydrolysis Results, Median Value [3]: 287 ng/mL
- Urine concentration, Pre-Hydrolysis Results, Minimum Value [3]: 17 ng/mL
- Urine concentration, Pre-Hydrolysis Results, Subject HR [3]: 4574 ng/mL
- Urine concentration, Pre-Hydrolysis Results, Subject eight [3]: 120 ng/mL
- Urine concentration, Pre-Hydrolysis Results, Subject eighteen [3]: 755 ng/mL
- Urine concentration, Pre-Hydrolysis Results, Subject eleven [3]: 17 ng/mL
- Urine concentration, Pre-Hydrolysis Results, Subject fifteen [3]: 1118 ng/mL
- Urine concentration, Pre-Hydrolysis Results, Subject five [3]: 77 ng/mL
- Urine concentration, Pre-Hydrolysis Results, Subject four [3]: 187 ng/mL
- Urine concentration, Pre-Hydrolysis Results, Subject fourteen [3]: 917 ng/mL
- Urine concentration, Pre-Hydrolysis Results, Subject one [3]: 269 ng/mL
- Urine concentration, Pre-Hydrolysis Results, Subject seven [3]: 873 ng/mL
- Urine concentration, Pre-Hydrolysis Results, Subject seventeen [3]: 315 ng/mL
- Urine concentration, Pre-Hydrolysis Results, Subject six [3]: 77 ng/mL
- Urine concentration, Pre-Hydrolysis Results, Subject sixteen [3]: 97 ng/mL
- Urine concentration, Pre-Hydrolysis Results, Subject thirteen [3]: 1137 ng/mL
- Urine concentration, Pre-Hydrolysis Results, Subject three [3]: 304 ng/mL
- Urine concentration, Pre-Hydrolysis Results, Subject twelve [3]: 361 ng/mL
- Urine concentration, Pre-Hydrolysis Results, Subject twenty [3]: 208 ng/mL
- Urine concentration, Pre-Hydrolysis Results, Subject twenty-one [3]: 137 ng/mL
- Urine concentration, Pre-Hydrolysis Results, Subject twenty-two [3]: 222 ng/mL
- Urine concentration, Pre-Hydrolysis Results, Subject two [3]: 4999 ng/mL
- Urine concentration, Post-Hydrolysis Results, Subject T [4]: 86 ng/mL
- Urine concentration, Post-Hydrolysis Results, Subject W [4]: ND (Indicates that the listed parent or metabolite compound was either not detected or detected below the established cut-off of 5 ng/mL indicating a negative result for that particular subject.)
- Urine concentration, Post-Hydrolysis Results, Subject eleven [4]: 4059 ng/mL
- Urine concentration, Post-Hydrolysis Results, Subject fifteen [4]: >5000 ng/mL
- Urine concentration, Post-Hydrolysis Results, Subject four [4]: 2928 ng/mL
- Urine concentration, Post-Hydrolysis Results, Subject nine [4]: 1494 ng/mL
- Urine concentration, Post-Hydrolysis Results, Subject nineteen [4]: 29 ng/mL
- Urine concentration, Post-Hydrolysis Results, Subject seventeen [4]: >5000 ng/mL
- Urine concentration, Post-Hydrolysis Results, Subject sixteen [4]: 3019 ng/mL
- Urine concentration, Post-Hydrolysis Results, Subject twenty [4]: >5000 ng/mL
- Urine concentration, Post-Hydrolysis Results, Subject twenty-five [4]: 2579 ng/mL
- Urine concentration, Post-Hydrolysis Results, Subject twenty-three [4]: 14 ng/mL
- share of the total radioactivity in plasma [1]: 24%
- time to steady state serum concentrations ([5]; days of dosing): 2 days
- increase of bioavailability ([5]; dosing with a light meal (~300 calories)): ~20%
- mean elimination half-life ([5]; in vivo): 6 h
- absorption ([5]; oral administration): rapidly absorbed
- excreted in the feces [6]: 20%
- recovered in the urine [6]: 73%
